Measured values taken from ChEMBL document CHEMBL1201862, “PubChem BioAssay data set” (2004).
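Cells were grown in 96-well plates and exposed to each compound for 48 hours at five concentrations; endpoints were interpolated linearly between bracketing concentrations, or set to the highest concentration if not reached. GI50 is the concentration that inhibits growth by half.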 The source made the active and inactive calls. No stated cut-off is given here; in the data, active = GI50 up to about 1.1 µM and inactive = higher.

Key:
Test in all cases: NCI anticancer screen, dose series, 48 h
NCI-H522 = tested on: NCI-H522
RPMI-8226 = tested on: RPMI-8226
HT-29 = tested on: HT-29
A549 = tested on: A549
LXFL 529 = tested on: LXFL 529
SN12C = tested on: SN12C
EKVX = tested on: EKVX
M14 = tested on: M14
K562 = tested on: K562
COLO 205 = tested on: COLO 205
SF-539 = tested on: SF-539
DLD-1 = tested on: DLD-1
OVCAR-8 = tested on: OVCAR-8
SNB-19 = tested on: SNB-19
DMS-114 = tested on: DMS-114
SNB-78 = tested on: SNB-78
CAKI-1 = tested on: CAKI-1
SF-295 = tested on: SF-295
SF-268 = tested on: SF-268
NCI-H23 = tested on: NCI-H23
UACC-257 = tested on: UACC-257
NCI-H226 = tested on: NCI-H226
SW-620 = tested on: SW-620
HOP-92 = tested on: HOP-92
HCT-116 = tested on: HCT-116
SK-MEL-2 = tested on: SK-MEL-2
CCRF-CEM = tested on: CCRF-CEM
Malme-3M = tested on: Malme-3M
HCC 2998 = tested on: HCC 2998
XF498 = tested on: XF498
TK-10 = tested on: TK-10
HCT-15 = tested on: HCT-15
M19-MEL = tested on: M19-MEL
ACHN = tested on: ACHN
IGROV-1 = tested on: IGROV-1
SK-MEL-28 = tested on: SK-MEL-28
HL-60 = tested on: HL-60
UO-31 = tested on: UO-31
HOP-62 = tested on: HOP-62
786-0 = tested on: 786-0
HOP-18 = tested on: HOP-18
SK-OV-3 = tested on: SK-OV-3
SR = tested on: SR
OVCAR-3 = tested on: OVCAR-3
OVCAR-5 = tested on: OVCAR-5
RXF 393 = tested on: RXF 393
KM-20L2 = tested on: KM-20L2
SK-MEL-5 = tested on: SK-MEL-5
UACC-62 = tested on: UACC-62
U-251 = tested on: U-251
DMS-273 = tested on: DMS-273
SNB-75 = tested on: SNB-75
MOLT-4 = tested on: MOLT-4
OVCAR-4 = tested on: OVCAR-4
LOX IMVI = tested on: LOX IMVI
Hs-578T = tested on: Hs-578T
MDA-N = tested on: MDA-N
DU-145 = tested on: DU-145
MDA-MB-231 = tested on: MDA-MB-231
PC-3 = tested on: PC-3
NCI/ADR-RES = tested on: NCI/ADR-RES
MDA-MB-435 = tested on: MDA-MB-435
KM12 = tested on: KM12
T47D = tested on: T47D
NCI-H460 = tested on: NCI-H460
MCF7 = tested on: MCF7
A498 = tested on: A498
BT-549 = tested on: BT-549

With `COc1ccc2c(c1)CN1CCc3c(cc(OC)c(OC)c3OC)C1C2` (configuration not stated) the GI50 (NCI-H522) was > 100 µM (inactive), the GI50 (RPMI-8226) was 38.4 µM (inactive) and the GI50 (HT-29) was 68.5 µM (inactive). The GI50 (A549) was > 100 µM (inactive), the GI50 (LXFL 529) was 39.4 µM (inactive) and the GI50 (SN12C) was > 100 µM (inactive). The GI50 (EKVX) was > 100 µM (inactive), the GI50 (M14) was 87.1 µM (inactive) and the GI50 (K562) was 57.5 µM (inactive). The GI50 (COLO 205) was > 100 µM (inactive), the GI50 (SF-539) was > 100 µM (inactive) and the GI50 (DLD-1) was > 100 µM (inactive). For the same molecule, the GI50 (OVCAR-8) was > 100 µM (inactive), the GI50 (SNB-19) was > 100 µM (inactive) and the GI50 (DMS-114) was 58.5 µM (inactive). The GI50 (SNB-78) was > 100 µM (inactive), the GI50 (CAKI-1) was > 100 µM (inactive) and the GI50 (SF-295) was > 100 µM (inactive). The GI50 (SF-268) was > 100 µM (inactive), the GI50 (NCI-H23) was > 100 µM (inactive) and the GI50 (UACC-257) was > 100 µM (inactive). For the same molecule, the GI50 (NCI-H226) was > 100 µM (inactive), the GI50 (SW-620) was > 100 µM (inactive) and the GI50 (HOP-92) was > 100 µM (inactive). The GI50 (HCT-116) was > 100 µM (inactive), the GI50 (SK-MEL-2) was > 100 µM (inactive) and the GI50 (CCRF-CEM) was 74.6 µM (inactive). The GI50 (Malme-3M) was > 100 µM (inactive), the GI50 (HCC 2998) was > 100 µM (inactive) and the GI50 (XF498) was 38.7 µM (inactive). The GI50 (TK-10) was > 100 µM (inactive), the GI50 (HCT-15) was over 100 µM and the GI50 (M19-MEL) was > 100 µM (inactive). For the same molecule, the GI50 (ACHN) was > 100 µM (inactive), the GI50 (IGROV-1) was > 100 µM (inactive) and the GI50 (SK-MEL-28) was 47.6 µM (inactive). The GI50 (HL-60) was 41.5 µM (inactive), the GI50 (UO-31) was > 100 µM (inactive) and the GI50 (HOP-62) was > 100 µM (inactive). For the same molecule, the GI50 (786-0) was > 100 µM (inactive), the GI50 (HOP-18) was > 100 µM (inactive) and the GI50 (SK-OV-3) was > 100 µM (inactive). For the same molecule, the GI50 (SR) was > 100 µM (inactive), the GI50 (OVCAR-3) was > 100 µM (inactive) and the GI50 (OVCAR-5) was 64.1 µM (inactive). For the same molecule, the GI50 (RXF 393) was > 100 µM (inactive), the GI50 (KM-20L2) was > 100 µM (inactive) and the GI50 (SK-MEL-5) was 36.5 µM (inactive). The GI50 (UACC-62) was 74.1 µM (inactive), the GI50 (U-251) was > 100 µM (inactive) and the GI50 (DMS-273) was > 100 µM (inactive). For the same molecule, the GI50 (SNB-75) was > 100 µM (inactive), the GI50 (MOLT-4) was 63 µM (inactive) and the GI50 (OVCAR-4) was > 100 µM (inactive).
In the case of `Cc1nc(N)nc(N)c1-c1ccc(Cl)c(Cl)c1` [METOPRINE], the GI50 (NCI-H522) is reported as 0.785 µM (active), the GI50 (RPMI-8226) is reported as 6.28 µM (inactive) and the GI50 (HT-29) is reported as 0.258 µM (active). For the same molecule, the GI50 (A549) was 0.0325 µM (active), the GI50 (LOX IMVI) was 0.054 µM (active) and the GI50 (LXFL 529) was 0.404 µM (active). The GI50 (SN12C) was 0.664 µM (active), the GI50 (EKVX) was 4.47 µM (inactive) and the GI50 (M14) was 0.162 µM (active). For the same molecule, the GI50 (K562) was 0.0219 µM (active), the GI50 (COLO 205) was 10.4 µM (inactive) and the GI50 (SF-539) was 1.21 µM (inactive). For the same molecule, the GI50 (DLD-1) was 0.427 µM (active), the GI50 (OVCAR-8) was 0.603 µM (active) and the GI50 (SNB-19) was 2.69 µM (inactive). For the same molecule, the GI50 (DMS-114) was 0.149 µM (active), the GI50 (Hs-578T) was 4.72 µM (inactive) and the GI50 (SNB-78) was 26.3 µM (inactive). For the same molecule, the GI50 (CAKI-1) was 5.18 µM (inactive), the GI50 (SF-295) was 0.411 µM (active) and the GI50 (SF-268) was 1 µM (active). For the same molecule, the GI50 (MDA-N) was 0.141 µM (active), the GI50 (NCI-H23) was 0.378 µM (active) and the GI50 (UACC-257) was 3.85 µM (inactive). The GI50 (NCI-H226) was > 33.3 µM (inactive), the GI50 (SW-620) was 0.144 µM (active) and the GI50 (DU-145) was 1.72 µM (inactive). For the same molecule, the GI50 (MDA-MB-231) was 0.466 µM (active), the GI50 (HOP-92) was 7.6 µM (inactive) and the GI50 (HCT-116) was 0.0399 µM (active). The GI50 (SK-MEL-2) was 30.8 µM (inactive), the GI50 (CCRF-CEM) was 0.432 µM (active) and the GI50 (PC-3) was 0.0785 µM (active). For the same molecule, the GI50 (Malme-3M) was 2.91 µM (inactive), the GI50 (HCC 2998) was 2.91 µM (inactive) and the GI50 (XF498) was 34.8 µM (inactive). For the same molecule, the GI50 (TK-10) was 9.2 µM (inactive), the GI50 (HCT-15) was 0.145 µM and the GI50 (NCI/ADR-RES) was 1.1 µM (active). For the same molecule, the GI50 (MDA-MB-435) was 0.356 µM (active), the GI50 (M19-MEL) was 2.36 µM (inactive) and the GI50 (ACHN) was 0.495 µM (active). The GI50 (IGROV-1) was 2.54 µM (inactive), the GI50 (SK-MEL-28) was 4.6 µM (inactive) and the GI50 (HL-60) was 0.13 µM (active). The GI50 (UO-31) was 1.15 µM (inactive), the GI50 (HOP-62) was 1.12 µM (inactive) and the GI50 (KM12) was 3.05 µM (inactive). For the same molecule, the GI50 (786-0) was 0.273 µM (active), the GI50 (HOP-18) was 25.8 µM (inactive) and the GI50 (T47D) was 16.9 µM (inactive). The GI50 (SK-OV-3) was 3.48 µM (inactive), the GI50 (SR) was 0.308 µM (active) and the GI50 (OVCAR-3) was 3.75 µM (inactive). For the same molecule, the GI50 (NCI-H460) was 0.0239 µM (active), the GI50 (MCF7) was 0.826 µM (active) and the GI50 (OVCAR-5) was 14.2 µM (inactive). The GI50 (RXF 393) was 13.2 µM (inactive), the GI50 (KM-20L2) was 0.94 µM (active) and the GI50 (SK-MEL-5) was 0.409 µM (active). The GI50 (UACC-62) was 0.355 µM (active), the GI50 (A498) was 21.6 µM (inactive) and the GI50 (U-251) was 0.635 µM (active). For the same molecule, the GI50 (DMS-273) was 0.157 µM (active), the GI50 (BT-549) was 21 µM (inactive) and the GI50 (SNB-75) was 11.5 µM (inactive). For the same molecule, the GI50 (MOLT-4) was 0.607 µM (active) and the GI50 (OVCAR-4) was 37.9 µM (inactive).
